# Source: patent US10143638B2, “Method of treating skin with ingenol mebutate” (LEO Laboratories Limited, priority 2009, dated 2018)
# Tests used:
# Format in all cases: cell-based, human
# dermal fibroblasts [1] = assay: Hyaluronan pericellular coat formation by dermal fibroblasts (particle exclusion assay); conditions: TGF-β1 10 ng/ml, absence of PEP005, 24 h
# Source text: (§1) A normal adult skin biopsy (6 mm) was obtained (n=1), with informed consent, from an individual attending the Oral Surgery Clinic, School of Dentistry, Wales College of Medicine, Cardiff. Following the application of a local anaesthetic, the dermal biopsy was collected and adult dermal fibroblast cultures established by single cell suspension technique, following enzymic degradation of the specimen. This technique has previously been reliably used to establish viable primary cultures of both oral and dermal fibroblasts in vitro (Cook et al, 2000; Stephens et al, 2001; 2003). Dermal fibroblasts were cultured in Fibroblast-Serum Containing Medium, containing Dulbecco's Modified Eagle's Medium (DMEM), supplemented with L-glutamine (2 mM), antibiotics (100 U/ml) penicillin G sodium, […] streptomycin sulphate and 0.25 μg/ml amphotericin B) and 10% foetal calf serum (all purchased from Invitrogen Ltd., Paisley, U.K.). Dermal fibroblast cultures were maintained at 37° C., in a 5% CO2/95% air atmosphere, with the culture medium being changed every 2-3 days. Dermal fibroblasts were used between) passage 7-17, for all experiments.
# Following trypsinization, dermal fibroblasts were seeded in 53 mm bacteriological grade culture dishes (VWR International Ltd., Leicestershire, U.K.), in PEP005-free, Fibroblast-Serum Containing Medium (2 ml), at a density of 7×10^4 cell/dish. Dermal fibroblasts were maintained at 37° C., in a 5% CO2/95% air atmosphere, overnight, prior to washing in PBS (2×2 ml) and maintenance in serum-free, Fibroblast-Serum Containing Medium (2 ml), containing 0 μg/ml, 0.01 μg/ml, 0.1 μg/ml, 1 μg/ml, 10 μg/ml or 100 μg/ml PEP005, +/−TGF-β1 (10 ng/ml) (three culture dishes per PEP005 concentration). A control was also established, consisting of cells in serum-free, Fibroblast-Serum Containing Medium, containing 1% DMSO. The dermal fibroblasts were maintained at 37° C., in a 5% CO2/95% air atmosphere, for 24 h or 72 h. At 24 h and 72 h, the culture dishes were treated with formalized horse blood erythrocytes (TCS Biosciences Ltd., Buckinghamshire, U.K.). The formalized horse blood erythrocytes were washed in PBS, to remove sodium azide (3×20 ml) and centrifuged at 100 g/7 min, at 4° C. The erythrocyte cell pellet obtained was re-suspended in serum-free, Fibroblast-Serum Containing Medium, to a density of 1×10^8 cells/ml. Aliquots of the erythrocyte cell suspension (500 μl) were supplemented to each culture dish and the dishes agitated, prior to maintenance at 37° C., in a 5% CO2/95% air atmosphere, for 15 min. Zones of erythrocyte exclusion were visualized by light microscopy, using a Zeiss Axiovery 135 Inverted Microscope (Carl Zeiss Ltd., Hertfordshire, U.K.), with a Hamamatsun C5985 chilled CCD camera (Hamamatsu Photonics U.K. Ltd., Hertfordshire, U.K.) and using Openlab Software 3.0.8 (Improvision Ltd., Warwickshire, U.K.). Each experiment was performed on three separate occasions.
# HAS3 = HAS3 gene expression by dermal fibroblasts (qPCR); conditions: TGF-β1 10 ng/ml
# Source text: as §1
# (§2) Following trypsinization, dermal fibroblasts were seeded in 24-well tissue culture plates, in PEP005-free, Fibroblast-Serum Containing Medium (1 ml), at a cell density of 2.5×10^4 cell/well. Dermal fibroblasts were maintained at 37° C., in a 5% CO2/95% air atmosphere, overnight. At this stage, the culture medium was replaced with Fibroblast-Serum Containing Medium (600 μl), containing 0 μg/ml, 0.01 μg/ml, 0.1 μg/ml, 1 μg/ml, 10 μg/ml or 100 μg/ml PEP005, +/−TGF-β1 (10 ng/ml) (three culture wells per PEP005 concentration). A control was also established, consisting of cells in Fibroblast-Serum Containing Medium, containing 1% DMSO. The dermal fibroblasts were maintained at 37° C., in a 5% CO2/95% air atmosphere, for 24 h or 72 h, prior to washing in PBS (3×1 ml) and Trizol® Reagent (250 μl) added to the cells, for 5 min at room temperature, to induce cell lysis. RNA was extracted by the phenol-chloroform method, as described above, while a cDNA library was generated via random hexamer RT, as described above. RNA (1 μg) was added to 100 µM random hexamer (1 μl), 5×RT Buffer (4 μl), 2.5 mM Deoxynucleoside Triphosphates (dNTPs, 5 μl), 2 μl DTT and Nuclease-Free Water, were added to the reaction (total volume, 20 μl). To denature the RNA, reaction tubes were placed in a GeneAmp PCR System 9700 (Applied Biosystems, Cheshire, U.K.) and heated for 5 min/95° C., prior to cooling to 4° C. Superscript (1 μl) and RNAsin® Ribonuclease Inhibitor (1 μl, Promega, Hampshire, U.K.) were added to each tube, and the tubes subjected to […] at 20° C. for 10 min, 42° C. for 1 h and 95° C. for 5 min, prior to storage at 4° C., until required. As a negative control, RT was also performed, with Nuclease-Free Water replacing the RNA sample.
# (§3) qPCR was performed, as described above, with the probe and primers for HAS1, HAS2 and HAS3 (target genes) and the 18s ribosomal RNA (reference gene), designed and supplied by Applied Biosystems. PCR was performed in a final volume of 20 μl/sample, with each reaction mix consisting of cDNA (1 μl), target gene primers and probe (1 μl), Taqman® FAST Universal PCR Master Mix (10 μl, Applied Biosystems), and Nuclease-Free Water (8 μl). PCR amplification was performed, using an initial cycle of 95° C. for 1 s, followed by 40 cycles of 60° C. for 20 s. A cDNA-free control was also included. Again, the comparative CT method was used for relative quantification of gene expression. Each experiment was performed on three separate occasions.
# HAS1 = HAS1 gene expression by dermal fibroblasts (qPCR); conditions: TGF-β1 10 ng/ml
# Source text: as §1, §2, §3
# dermal fibroblasts [2] = assay: Hyaluronan synthesis by dermal fibroblasts (Hyaluronic Acid Quantitative Test Kit); conditions: TGF-β1 10 ng/ml, absence of PEP005, 24 h
# Source text: as §1
# Following trypsinization, dermal fibroblasts were seeded in 24-well tissue culture plates in PEP005-free, Fibroblast-Serum Containing Medium (1 ml), at a cell density of 2.5×10^4 cell/well. Dermal fibroblasts were maintained at 37° C., in a 5% CO2/95% air atmosphere, for 48 h, prior to maintenance in serum-free, Fibroblast-Serum Containing Medium (1 ml), for a further 48 h. At this stage, the serum-free, culture medium was replaced with Fibroblast-Serum Containing Medium (600 μl), containing 0 μg/ml, 0.01 μg/ml, 0.1 μg/ml, 1 μg/ml, 10 μg/ml or 100 μg/ml PEP005, +/−TGF-β1 (10 ng/ml) (three culture wells per PEP005 concentration). A control was also established, consisting of cells in serum-free, Fibroblast-Serum Containing Medium, containing 1% DMSO. The dermal fibroblasts were maintained at 37° C., in a 5% CO2/95% air atmosphere, for 24 h or 72 h, prior to culture medium removal. Hyaluronan synthesis in the collected culture media was quantified, using a Hyaluronic Acid Quantitative Test Kit (Corgenix U.K. Ltd., Cambridgeshire, U.K.), which utilizes a naturally occurring bovine binding protein to hyaluronan. Supernatants were assayed, as per manufacturer's instructions, and optical density measured using a spectrophotometer at 450 nm. Hyaluronan concentrations were determined by comparing the absorbance of the sample against a reference curve prepared from the reagent blank and standards. Each experiment was performed on three separate occasions.
# HAS2 = HAS2 gene expression by dermal fibroblasts (qPCR); conditions: TGF-β1 10 ng/ml
# Source text: as §1, §2, §3
substance,measurement,setting,value
TGF-β1: TGF-β1 (10 ng/ml) added to dermal fibroblast cultures with or without PEP005 [reference compound],hyaluronan pericellular coat formation,dermal fibroblasts [1],slight increase
same,HAS3 expression,"HAS3; absence of PEP005, 24 h (p<0.01)",inhibitory effect
same,HAS3 expression,"HAS3; absence of PEP005, 72 h",inhibitory effect
same,HAS1 expression,"HAS1; absence of PEP005, 24 h, compared to control fibroblasts (p<0.001)",major up-regulation
same,HAS1 expression,"HAS1; absence of PEP005, 72 h, compared to control fibroblasts",up-regulation
same,hyaluronan synthesis,dermal fibroblasts [2],slight stimulation
same,HAS2 expression,"HAS2; absence of PEP005, 24 h",little effect
same,HAS2 expression,"HAS2; absence of PEP005, 72 h (p>0.05)",minimal effects
